Measurements reported in the supplement of paper PMC11997997.

Experiments:
[1] = test system: Mycobacterium tuberculosis CDC1551 (intracellular, in murine BMDM); assay: area under intracellular growth-inhibition dose-response curve (AUC (% inhibition x dose, relative)); higher = more potent; conditions: duration: 6 days; dose range: 0.13-80 uM, 8 points
Summary of the method: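 Luciferase-expressing M. tuberculosis CDC1551 was used at multiplicity of infection 1 for 1 h to infect primary murine bone marrow-derived macrophages in 384-well opaque plates, 24 h after seeding. Treatment followed for 6 days with an 8-dose, 2.5-fold series at final concentrations of 80–0.13 μM. GraphPad Prism was used to calculate the area under the growth-inhibition dose–response curve from Bright-Glo luciferin readings normalised to a reference drug control and the lowest-concentration wells.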

[2] = test system: murine bone marrow-derived macrophages; assay: area under cytotoxicity dose-response curve (AUC (% cytotoxicity x dose, relative)); higher = more cytotoxic; conditions: duration: 6 days; dose range: 0.13-80 uM, 8 points
Summary of the method: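 Cytotoxicity is given as the area under the dose–response curve, computed in GraphPad Prism version 10. Primary murine bone marrow-derived macrophages in opaque 384-well plates received an 8-point, 2.5-fold dilution series (final 80–0.13 μM) for 6 days at 37 °C in 5% CO2. Viability was measured by Promega's CellTiter-Glo luminescence assay, with percent cytotoxicity normalised to vehicle and positive control wells.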

| SMILES | area under intracellular growth-inhibition dose-response curve [1] | area under cytotoxicity dose-response curve [2] |
| --- | --- | --- |
| NC(=S)N/N=C/c1c[nH]c2ccccc12 | 231 | 35.6 |
| O=C(Nc1ccc(OC(F)(F)F)cc1)c1ccc2c(c1)no[n+]2[O-] | 230 | < 0 |
| Cc1ccc(OCCOC(=O)c2c(-c3ccccc3)noc2C)cc1 | 200 | < 0 |
| CCOc1c(Cl)cc(/C=N/NC(N)=S)cc1OC | 266 | < 0 |
| NC(=S)N/N=C/c1ccc(-c2ccc(SC(F)F)cc2)o1 | 271 | 46.9 |
| COc1cc(/C=N/NC(N)=S)ccc1OCC(=O)Nc1ccc(C)c(C)c1 | 242 | 10.1 |
| CC1CCCCC1NC(=O)c1cc2ccccc2o1 (centres undefined) | 258 | 32.6 |
| Cc1ccc(C2=NCCn3c2c2ccc([N+](=O)[O-])cc2[n+]3[O-])cc1 | 20.7 | 96.8 |
| CC(=O)NC(=S)Nc1ccc(NC(=O)c2cccnc2Cl)cc1 | 262 | < 0 |
| CCOC(=O)[N-]c1c[n+](N2CCOCC2)no1 | 28 | 41.1 |
| COc1cc(/C=N/NC(N)=S)ccc1OCc1ccc(C)cc1 | 255 | 30.4 |
| CSc1sccc1/C=N/NC(=O)c1ccncc1 | 249 | 15.4 |
| O=C(Cc1ccc(Br)cc1)N1CCCC1 | 208 | < 0 |
| C=CCN1/C(=C/c2ccc3cc(C)ccc3[n+]2CC)C=Cc2ccccc21.[Br-] | 102 | 86.8 |
| CSc1ccc(C(=O)C2CCCN(C(=O)c3ccc4c(c3)no[n+]4[O-])C2)cc1 (centres undefined) | 191 | 64.7 |
| CCOc1ccc2ccccc2c1/C=N/NC(=O)c1ccncc1 | 270 | < 0 |
| CNc1nc(SC)nc2ccsc12 | 221 | 11.7 |
| CCCCN1CNC(=S)N(c2ccc(C(=O)OCC)cc2)C1 | 270 | < 0 |
| Cc1ccc(-c2cc(-c3ccc(C)cc3)[n+](-c3ccccc3)c(-c3ccc(C)cc3)c2)cc1.[O-][Cl+3]([O-])([O-])[O-] | 268 | 85.5 |
| CCOc1ccc(OCCC(=O)NNC(=O)c2ccncc2)cc1 | 272 | 1.82 |
| Cc1[nH]c2ccccc2c1C(=O)C(C)OC(=O)c1ccc([N+](=O)[O-])o1 (centres undefined) | 3.96 | < 0 |

| SMILES | area under intracellular growth-inhibition dose-response curve [1] | area under cytotoxicity dose-response curve [2] |
| --- | --- | --- |
| CC1CCC(C(C)C)C(OC(=O)C[n+]2cc(-c3ccc(Cl)cc3)n3c2CCCCC3)C1.[Cl-] (centres undefined) | 94.6 | 107 |
| Cc1ccc(-c2nnc(NC(=O)c3ccc([N+](=O)[O-])o3)o2)c(C)c1 | 78.2 | 91.5 |
| O=C(N/N=C\c1ccc(Cl)s1)C1COc2ccccc2O1 (centres undefined) | 129 | 2.47 |
| Cl.O=C(CCN1CCN(CCO)CC1)N1c2ccccc2Sc2ccc(C(F)(F)F)cc21 | 61.3 | 75 |
| CCCCNC(=O)Cc1ccc(C)cc1 | 115 | 80.9 |
| CCOC(=O)Nc1ccc(C(=O)Oc2ccccc2)c(O)c1 | 31.9 | 63.8 |
| CSCCC(NC(=O)c1ccccc1Br)C(=O)NNC(=O)c1ccncc1 (centres undefined) | 244 | 12.7 |
| CC1CCN(C(=O)C2CCN(c3nnc(-n4cccc4)s3)CC2)CC1 | 234 | < 0 |
| O=C(NCc1ccccc1Cl)c1ccc(Br)o1 | 120 | < 0 |
| CCOC(=O)c1ccccc1NC(=O)c1c(F)c(F)c(F)c(F)c1F | 183 | < 0 |
| COc1ccc(NC(=O)CON=CC(=O)Nc2ccc(C)cc2)c(OC)c1 | 38.9 | 7 |
| CCSc1nnc(NC(=O)[C@H](C)N2C(=O)C3CC=CCC3C2=O)s1 (some centres undefined) | 129 | < 0 |
| CCCCOc1ccc(C(=O)C2=C(O)C(=O)N(CCCOC)C2c2ccncc2)cc1 (centres undefined) | 106 | 19.4 |
| C/C(=N\NC(=O)c1ccncc1)c1cccc(NC(=O)c2ccc(C(C)(C)C)cc2)c1 | 264 | 47.8 |
| O=[N+]([O-])c1nn(-c2ccc(Cl)cc2)[n+]([O-])c1NCc1ccncc1 | 30.7 | 11.5 |
| COc1ccc(NC(=O)/C(Cl)=C(/Cl)S(=O)Cc2ccccc2Cl)cn1 (centres undefined) | < 0 | 140 |
| O=C(NCc1cccs1)c1ccc(Br)o1 | 191 | < 0 |
| Cc1ccccc1C(=O)N1CCN(c2ccc(NC(=S)NC(=O)c3ccco3)cc2)CC1 | 185 | 63.6 |
| O=[N+]([O-])C(=C\Nc1ccccc1O)/C=N/c1ccccc1O | 57.2 | 3.94 |
| CC(C)CCNC(=O)CSc1nc(O)c2ccccc2n1 | 27.8 | 40.4 |
| Cc1nn(C(C)C(=O)NC2C(=O)N3C(C(=O)O)=C(CSc4nnnn4C)CSC23)cc1Cl (centres undefined) | 194 | 9.03 |

| SMILES | area under intracellular growth-inhibition dose-response curve [1] | area under cytotoxicity dose-response curve [2] |
| --- | --- | --- |
| Cc1nnc(SCC2=C(C(=O)O)N3C(=O)C(NC(=O)Cn4nc(C(F)F)cc4C)C3SC2)s1 (centres undefined) | 215 | < 0 |
| COc1ccc(/C=N/NC(N)=S)cc1OC(=O)c1ccccc1 | 241 | 106 |
| CC(C)CCNC(=O)c1csc2c1CCCCC2 | 250 | 42.8 |
| C/C(=C\c1ccccc1)C(=O)NCc1ccco1 | 111 | 134 |
| COc1c(N2CCN(C(=S)NCc3ccccc3)C(C)C2)c(F)cc2c(=O)c(C(=O)O)cn(C3CC3)c12 (centres undefined) | 165 | < 0 |
| CC(=O)c1ccc(NC(=S)Nc2ccc(N3CCOCC3)cc2)cc1.Cl | 260 | 40.4 |
| Cn1nc([N+](=O)[O-])nc1Oc1ccc(C(C)(C)C)cc1 | 206 | 40.1 |
| O=C(NCCC1=CCCCC1)NC12CC3CC(CC(C3)C1)C2 | 196 | 60.3 |
| CCOC(=O)c1ccc(NC(=O)c2cc3c(s2)CCC3)cc1 | 234 | 11.2 |
| COc1ccc(C(C)NC(=O)c2ccccc2)cc1 (centres undefined) | 222 | 237 |
| Cc1cccc(NC(=O)COC(=O)CCc2c[nH]c3ccccc23)c1C | 27.4 | 28.4 |
| O=C(CSc1ccccc1)NNC(=O)c1ccncc1 | 219 | 18.7 |
| Nc1c2c(nc3sc4c(c13)CCCCC4)CCCC2 | 171 | 14.6 |
| O=C(N/N=C/c1ccc(O)c([N+](=O)[O-])c1)c1ccncc1 | 256 | < 0 |
| C=C1C(=O)O[C@@H]2C[C@@H](C)[C@@H]3C=CC(=O)[C@@]3(C)[C@@H](OC(C)=O)[C@H]12 | 46.3 | 118 |
| CNC[C@H](CC1CCCCC1)NC[C@H](Cc1ccccc1)NCCC12CC3CC(CC(C3)C1)C2 | 104 | 43 |
| CCCc1cc(C(N)=S)ccn1 | 215 | 8.35 |
| O=C1CN(C(=O)COC(=O)c2c(F)cccc2Cl)c2ccccc2N1 | 148 | < 0 |
| COc1ccc(NC(=O)Cn2c(C)cc(=O)c3ccccc32)cc1 | 182 | < 0 |
| O=S(=O)(Nc1ccc(S(=O)(=O)Nc2nccs2)cc1)c1ccc2c(c1)OCCO2 | 77.8 | < 0 |
